Tests used:
Assay type in all cases: in vivo
[1] = tested on: Diabrotica virgifera virgifera Leconte, 2nd instar western corn rootworm (WCR); assay: Western corn rootworm (WCR) soil test; parameters: key: 0 = no effect; 1 = 10-25% kill; 2 = 26-35% kill; 3 = 36-45% kill; 4 = 46-55% kill; 5 = 56-65% kill; 6 = 66-75% kill; 7 = 76-85% kill; 8 = 86-99% kill; 9 = 100% kill
Method: Test solutions are prepared by dissolving the test compound in a 35% acetone in water mixture to give a concentration of 10,000 ppm. Subsequent dilutions are made with water as needed. Diabrotica virgifera virgifera Leconte, 2nd Instar Western Corn Rootworm (WCR) One cc of fine talc is placed in a 30 mL wide-mouth screw-top glass jar. One mL of the appropriate acetone test solution is pipetted onto the talc so as to provide 1.25 mg of active ingredient per jar. The jars are set under a gentle air flow until the acetone is evaporated. The dried talc is loosened, 1 cc of millet seed is added to serve as food for the insects and 25 mL of moist soil is added to each jar. The jar is capped and the contents thoroughly mixed mechanically. Following this, ten 2nd instar rootworms are added to each jar and the jars are loosely capped to allow air exchange for the larvae. The treatments are held for 5 days when mortality counts are made. Missing larvae are presumed dead, since they decompose rapidly and cannot be found. The concentrations of active ingredient used in this test correspond approximately to 50 kg/ha. [table]

[2] = tested on: M. incognita (Root Knot Nematode) larvae; assay: Evaluation of test compounds against M. incognita larvae in microtiter plate wells (movement score); settings: larvae scored for movement after 20-24 hours; further: key: A score of '9' indicates inactive worms with a straight, sticklike morphology; A score of '8' indicates inactive worms with a limp, curled or curved morphology; A score of '7' indicates dead/paralyzed worms after 72 hours
Method: Evaluation of Test Compounds Against M. incognita (Root Knot Nematode)
Newly emerged M. incognita larvae are suspended in S Medium (buffered salt solution) to a concentration of 50-65 worms per 50 μl. 50 μl of the worm suspension are pipetted into microtiter plate wells containing the test compounds. The plates are then covered with plactic plate sealers to reduce loss of volume by evaporation. After 20-24 hours of incubation, the larvae are scored for movement. Wells containing obviously dead/paralyzed larvae are scored as positive. […] A score of “7” indicates dead/paralyzed worms after […].

[3] = tested on: Aphis gossypii, cotton aphid (CA); assay: Cotton aphid (CA) cotyledon dip test; parameters: key: 0 = no effect; 1 = 10-25% kill; 2 = 26-35% kill; 3 = 36-45% kill; 4 = 46-55% kill; 5 = 56-65% kill; 6 = 66-75% kill; 7 = 76-85% kill; 8 = 86-99% kill; 9 = 100% kill; settings: mortality after 5 days
Method: Test solutions are prepared by dissolving the test compound in a 35% acetone in water mixture to give a concentration of 10,000 ppm. Subsequent dilutions are made with water as needed. Aphis gossypii, Cotton Aphid (CA) Cotton plants at the cotyledon stage are selected and cut back to one plant per pot. A heavily infested leaf is taken from the main colony and placed on top of each cotyledon. The aphids are allowed to transfer to the host plant overnight. At the time of test treatment, the leaf used to transfer the aphids is removed and discarded. The cotyledons are dipped in the test solution and allowed to dry. After 5 days, mortality counts are made. [table]

[4] = tested on: C. elegans (Bristol strain); assay: Evaluation of test compounds against C. elegans (motility, 96-well plate); parameters: key: 9=complete kill in 4 hours; 8=complete kill in 24 hours; 7=markedly reduced motility in approximately 95% of worms in 24 hours; 0=normal motility, same as controls; settings: motility at 4 and 24 hours
Method: Evaluation of Test Compounds Against C. elegans Cultures of C. elegans (Bristol strain from J. Lewis) are maintained on E. coli lawns on NG Agar Plates at 20° C. New cultures are established weekly. Nematodes for testing are washed from cultures using Na buffer. Compounds are dissolved in 80% acetone. The test material is micropipetted (25 μl) into a single well of a 96-well sterile tissue culture plate and the solvent allowed to evaporate. A freshly prepared volume (50 μl) of C. elegans in Na buffer is micropipetted into each treated well and several control wells per plate. Plates are incubated at 20° C. Observations for efficacy are made under a dissecting microscope at 4 and 24 hours post-immersion. Immediately prior to reading the plate, it is gently tapped to stimulate the movement of the worms. Activity is judged subjectively, but semi-quantitatively, based on the drug effects on motility of the adults and larvae.

[5] = tested on: Spodoptera eridania, 2nd instar larvae, southern armyworm (SAW); assay: Southern armyworm (SAW) leaf dip test; parameters: key: 0 = no effect; 1 = 10-25% kill; 2 = 26-35% kill; 3 = 36-45% kill; 4 = 46-55% kill; 5 = 56-65% kill; 6 = 66-75% kill; 7 = 76-85% kill; 8 = 86-99% kill; 9 = 100% kill
Method: (§1) Test solutions are prepared by dissolving the test compound in a 35% acetone in water mixture to give a concentration of 10,000 ppm. Subsequent dilutions are made with water as needed.
Spodoptera eridania, 2nd Instar Larvae, Southern Armyworm (SAW)
A Sieva lima bean leaf expanded to 7-8 cm in length is dipped in the test solution with agitation for 3 seconds and allowed to dry in a hood. The leaf is then placed in a 100×10 mm petri dish containing a damp filter paper on the bottom and ten 2nd instar caterpillars. At 5 days, observations are made of mortality, reduced feeding, or any interference with normal molting.

[6] = tested on: Diabrotica undecimpunctata howardi, eggs-southern corn rootworm (SCR-Eggs); assay: Southern corn rootworm eggs (SCR-Eggs) treated diet test; parameters: key: 0 = no effect; 1 = 10-25% kill; 2 = 26-35% kill; 3 = 36-45% kill; 4 = 46-55% kill; 5 = 56-65% kill; 6 = 66-75% kill; 7 = 76-85% kill; 8 = 86-99% kill; 9 = 100% kill; settings: mortality after 7 days
Method: Test solutions are prepared by dissolving the test compound in a 35% acetone in water mixture to give a concentration of 10,000 ppm. Subsequent dilutions are made with water as needed. Spodoptera eridania, Eggs-southern Armyworm and Diabrotica undecimpunctata howardi, Eggs-southern Corn Rootworm (SAW-Eggs) and (SCR-Eggs) Wells containing artificial diet are treated with the test solutions and dried. The appropriate insect eggs are then placed in the wells. The wells are covered with vented, adhesive, clear plastic covers. After 7 days, mortality counts are made. [table]

[7] = tested on: Tetranychus urticae (OP-resistant strain), 2-spotted spider mite (TSM); assay: 2-spotted spider mite (TSM) plant dip test; parameters: key: 0 = no effect; 1 = 10-25% kill; 2 = 26-35% kill; 3 = 36-45% kill; 4 = 46-55% kill; 5 = 56-65% kill; 6 = 66-75% kill; 7 = 76-85% kill; 8 = 86-99% kill; 9 = 100% kill; settings: mortality after 2 days
Method: as §1
Tetranychus urticae (OP-resistant strain), 2-spotted Spider Mite (TSM)
Sieva lima bean plants with primary leaves expanded to 7-8 cm are selected and cut back to one plant per pot. A small piece is cut from an infested leaf taken from the main colony and placed on each leaf of the test plants. This is done about 2 hours before treatment to allow the mites to move over to the test plant to lay eggs. The size of the cut, infested leaf is varied to obtain about 100 mites per leaf. At the time of test treatment, the piece of leaf used to transfer the mites is removed and discarded. The newly-infested plants are dipped in the test solution for 3 seconds with agitation and set in the hood to dry. After 2 days, one leaf is removed and mortality counts are made.

Structure (SMILES)	WCR (50 ppm) rating [1]	M. incognita (150 ppm) score [2]	CA (300 ppm) rating [3]	Rating Against C. elegans (150 ppm) [4]	SAW (300 ppm) rating [5]	SCR Eggs (1000 ppm) rating [6]	TSM (300 ppm) rating [7]
C=CCSC(C[N+](=O)[O-])c1ccccc1Cl (racemic) [Example 95]	4 (4 = 46-55% kill)	0	0	0	0	0	0
O=[N+]([O-])CC(SCc1ccccc1)c1ccccc1Cl (racemic) [Example 93]	0	0	0	0	0	0	0
CCCSC(C[N+](=O)[O-])c1ccccc1Cl (racemic) [Example 94]	0	0	0	0	0	0	0
CC(C)CCCCCOC(=O)CSC(C[N+](=O)[O-])c1ccccc1Cl (stereo not drawn) [Example 91]	0	0	0	0	0	0	0
CCOC(=O)CSC(C[N+](=O)[O-])c1ccccc1Cl (stereo not drawn) [Example 89]	0	8	0	0	0	0	0
CCCCOC(=O)CSC(C[N+](=O)[O-])c1ccccc1F (stereo not drawn) [Example 41]	9 (9 = 100% kill)	9	0	7	1 (1 = 10-25% kill)	0	0
CCCCC(CC)COC(=O)CSC(C[N+](=O)[O-])c1ccccc1F (stereo not drawn) [Example 43]	7 (7 = 76-85% kill)	0	0	0	4 (4 = 46-55% kill)	9 (9 = 100% kill)	0
CCCSC(C[N+](=O)[O-])c1ccccc1F (stereo not drawn) [Example 45]	8 (8 = 86-99% kill)	0	0	0	0	7 (7 = 76-85% kill)	0
C=CCSC(C[N+](=O)[O-])c1ccc(C(C)C)cc1 (stereo not drawn) [Example 38]	0	0	0	0	0	9 (9 = 100% kill)	0
CCCCOC(=O)CSC(C[N+](=O)[O-])c1ccc(Cl)cc1 (stereo not drawn) [Example 72]	0	0	0	0	0		0
COC(=O)CSC(C[N+](=O)[O-])c1ccc(Cl)cc1 (stereo not drawn) [Example 70]	0	9	0	7	0		0
CC(C)CCCCCOC(=O)CSC(C[N+](=O)[O-])c1ccc(Cl)cc1 (stereo not drawn) [Example 73]	0	0	0	0	0		0
CCCSC(C[N+](=O)[O-])c1ccc(Cl)cc1 (stereo not drawn) [Example 76]	0	0	0	7	0		0
COC(=O)CSC(C[N+](=O)[O-])c1ccccc1Cl (stereo not drawn) [Example 88]	0	8	0		0	0	0
O=C(O)CSC(C[N+](=O)[O-])c1ccccc1F (stereo not drawn) [Example 67]	9 (9 = 100% kill)	9	0	9	0		0
CCOC(=O)CSC(C[N+](=O)[O-])c1ccc(Cl)cc1 (stereo not drawn) [Example 71]	0	0	0	7	0		0
O=[N+]([O-])CC(SCc1ccccc1)c1ccc(Cl)cc1 (stereo not drawn) [Example 75]	0	0	0	0	0		0
